Test results from US10501464B2, “7-oxo-6-(sulfooxy)-1,6-diazabicyclo[3.2.1]octane-2-carboxamide containing compounds and their use in treating bacterial infections” (WOCKHARDT LIMITED, priority 2015, dated 2019).
Read-outs that look alike come from different tables or passages of the source.

Assays:
Test in all cases: Antibacterial activity, MIC by agar dilution (CLSI)
Format in all cases: cell-based
[1] = system: K. pneumoniae H 522; details: Klebsiella pneumoniae, H522, K. pneumoniae H 522; compound tested alone; read-out: MIC
Description: (§1) The biological activity of representative compounds according to the invention against various bacterial strains was investigated. In a typical study, overnight grown bacterial cultures were diluted appropriately and inoculated on the agar media containing doubling dilutions of the test compounds. Observations for growth or no growth was performed after 16-20 hours of incubation at 35±2° C. in the ambient air. The overall procedure was performed as per Clinical and Laboratory Standards Institute (CLSI) recommendations, (Clinical and Laboratory Standards Institute (CLSI), Performance Standards for Antimicrobial Susceptibility Testing, 20th Informational Supplement, M07-A9, Volume 32, No. 2, 2012). Molten Mueller Hinton Agar (BD, USA) containing serial dilutions of each antibacterial agent were poured on to the plates and allowed to solidify. Appropriate suspensions from the freshly grown cultures were prepared in normal saline so that about 10^4CFU/spot of the organism was delivered on to the drug containing agar plates using automated multipoint inoculator (Mast, UK). The plates were incubated in Biochemical oxygen demand (BOD) incubator at 37° C. for 18 hours and then examined for growth.
(§2) Method for the determination of MIC: The Minimum Inhibitory Concentration (MIC) determination for the combinations was carried out in Muller Hinton Agar (MHA) (BD, USA) according to Clinical and Laboratory Standards Institute (CLSI) recommendations, (Clinical and Laboratory Standards Institute (CLSI), Performance Standards for Antimicrobial Susceptibility Testing, 20th Informational Supplement, M 100-S20, Volume 30, No. 1, 2010). In short, the test strains were adjusted to deliver about 10^4CFU per spot with a multipoint inoculator (Applied Quality Services, UK). The plates were poured with MHA containing doubling concentration range of representative compounds according to present invention. The plates were inoculated and were incubated at 35° C. for 18 hour. […] The Table 2 depicts the antibacterial activity profile of compounds according to present invention against various multidrug resistant bacterial strains.

[2] = system: P. mirabilis S 137B; details: Proteus mirabilis, S137B, compound tested alone, read-out: MIC
Description: as §1, §2

[3] = system: E. coli M 49; details: compound tested alone
Description: as §1, §2

[4] = system: E. coli M 138; details: Escherichia coli, M138, E. coli M 138; compound tested alone; read-out: MIC
Description: as §1, §2

[5] = system: E. coli 13353; details: compound tested alone
Description: as §1, §2

[6] = system: E. coli 13352; details: compound tested alone
Description: as §1, §2

[7] = system: E. coli 7 MP; details: compound tested alone
Description: as §1, §2

[8] = system: K. pneumoniae H 521; details: Klebsiella pneumoniae, H521, K. pneumoniae H 521; compound tested alone; read-out: MIC
Description: as §1, §2

[9] = system: K. pneumoniae H 525; details: Klebsiella pneumoniae, H525, K. pneumoniae H 525; compound tested alone; read-out: MIC
Description: as §1, §2

[10] = system: E. coli M 50; details: compound tested alone
Description: as §1, §2

[11] = system: K. pneumoniae H 523; details: Klebsiella pneumoniae, H523, K. pneumoniae H 523; compound tested alone; read-out: MIC
Description: as §1, §2

[12] = system: E. coli M 36; details: compound tested alone
Description: as §1, §2

[13] = system: K. pneumoniae ATCC 700603; details: Klebsiella pneumoniae, ATCC700603, compound tested alone, read-out: MIC
Description: as §1, §2

[14] = system: E. coli 13351; details: compound tested alone
Description: as §1, §2

[15] = Escherichia coli, M49, E. coli M 49, read-out: MIC
[16] = Escherichia coli, 13353, E. coli 13353, read-out: MIC
[17] = Escherichia coli, 13352, E. coli 13352, read-out: MIC
[18] = Escherichia coli, 7MP, read-out: MIC
[19] = Escherichia coli, M50, E. coli M 50, read-out: MIC
[20] = Escherichia coli, M36, E. coli M 36, read-out: MIC
[21] = Escherichia coli, 13351, E. coli 13351, read-out: MIC

Compound | MIC [1] [mg/L] | MIC [2] [mg/L] | MIC [3, 15] [mg/L] | MIC [4] [mg/L] | MIC [5, 16] [mg/L] | MIC [6, 17] [mg/L] | MIC [7, 18] [mg/L] | MIC [8] [mg/L] | MIC [9] [mg/L] | MIC [10, 19] [mg/L] | MIC [11] [mg/L] | MIC [12, 20] [mg/L] | MIC [13] [mg/L] | MIC [14, 21] [mg/L] | also measured
O=C(NNC(=O)[C@@H]1CC[C@@H]2CN1C(=O)N2OS(=O)(=O)O)[C@@H]1C[C@H](n2ccnn2)CN1 [Example 26] | 8 | > 32 | > 32 | 4 | 2 | 2 | 8 | 8 | 16 | 4 | 16 | 4 | > 32 | 2 | 
O=C(NOC[C@@H]1C[C@H](n2ccnn2)CN1)[C@@H]1CC[C@@H]2CN1C(=O)N2OS(=O)(=O)O [Example 6] | 2 | > 32 | 8 | 1 | 1 | 2 | 4 | 2 | 2 | 1 | 2 | 1 | > 32 | 2 | 
O=C(NNC(=O)[C@@H]1CC[C@@H]2CN1C(=O)N2OS(=O)(=O)O)[C@@H]1C[C@@H](n2ccnc2)CN1 [Example 33] | 4 | > 32 | 16 | 4 | 4 | 4 | 8 | 8 | 4 | 2 | 4 | 2 | > 32 | 4 | 
O=C(NOC[C@@H]1C[C@H](n2nccn2)CN1)[C@@H]1CC[C@@H]2CN1C(=O)N2OS(=O)(=O)O [Example 5] | 4 | > 32 | 8 | 1 | 1 | 1 | 2 | 4 | 4 | 1 | 4 | 1 | > 32 | 1 | 
O=C(NNC(=O)[C@@H]1CC[C@@H]2CN1C(=O)N2OS(=O)(=O)O)[C@@H]1C[C@H](n2nccn2)CN1 [Example 25] | 4 | > 32 | 8 | 2 | 0.5 | 1 | 2 | 4 | 8 | 1 | 4 | 1 | > 32 | 1 | 
Cc1nnn([C@@H]2CN[C@H](C(=O)NNC(=O)[C@@H]3CC[C@@H]4CN3C(=O)N4OS(=O)(=O)O)C2)n1 [Example 31] | 16 | > 32 | > 32 | 8 | 4 | 4 | 16 | 16 | 8 | 8 | 16 | 4 | > 32 | 4 | 
O=C(NNC(=O)[C@@H]1CC[C@@H]2CN1C(=O)N2OS(=O)(=O)O)C1C[C@H](n2cccn2)CN1 (stereo partly shown) [Example 27] | 4 | > 32 | > 32 | 2 | 1 | 1 | 8 | 4 | 4 | 1 | 4 | 1 | > 32 | 1 | 
O=C(NNC(=O)[C@@H]1CC[C@@H]2CN1C(=O)N2OS(=O)(=O)O)[C@@H]1C[C@H](n2cnnn2)CN1 [Example 24] | 4 | > 32 | 16 | 4 | 4 | 2 | 8 | 4 | 4 | 4 | 4 | 4 | > 32 | 2 | 
O=C(NNC(=O)[C@@H]1CC[C@@H]2CN1C(=O)N2OS(=O)(=O)O)C1C[C@H](n2ccnc2)CN1 (stereo partly shown) [Example 28] | 4 | > 32 | 8 | 2 |  |  |  | 4 | 4 |  | 4 |  | > 32 |  | MIC ([5]; E. coli 13353): 1 mg/L; MIC ([6]; E. coli 13352): 1 mg/L; MIC [7]: 4 mg/L; MIC ([10]; E. coli M 50): 2 mg/L; MIC ([12]; E. coli M 36): 1 mg/L; MIC ([14]; E. coli 13351): 1 mg/L
O=C(NOC[C@@H]1CC(n2cccn2)CN1)[C@@H]1CC[C@@H]2CN1C(=O)N2OS(=O)(=O)O (stereo partly shown) [Example 8] | 1 | > 32 | 4 | 1 | 0.5 | 1 | 2 | 1 | 1 | 1 | 1 | 0.5 | > 32 | 1 | 
O=C(NNC(=O)[C@@H]1CC[C@@H]2CN1C(=O)N2OS(=O)(=O)O)[C@@H]1C[C@@H](n2cccn2)CN1 [Example 3] | 4 | > 32 |  | 2 |  |  | 8 | 4 | 4 |  | 4 | 2 | > 32 |  | MIC ([3]; E. coli M 49): 4 mg/L; MIC ([5]; E. coli 13353): 1 mg/L; MIC ([6]; E. coli 13352): 1 mg/L; MIC ([10]; E. coli M 50): 1 mg/L; MIC ([14]; E. coli 13351): 1 mg/L
